# Source: ChEMBL document CHEMBL1158181, “Studies of trypanocidal (inhibitory) power of naphthoquinones: evaluation of quantum chemical molecular descriptors for structure-activity relationships” (Eur J Med Chem, 2008)
# pIC50: −log10 of the molar value.
# Tests used:
# [1] = Oxidation of dihydrolipoamide assessed as oxygen consumption at 50 uM; type: physicochemical
# Leptomonas seymouri = assay: Antitrypanosomal activity against Leptomonas seymouri; type: functional, organism-based
# Crithidia fasciculata = assay: Antitrypanosomal activity against Crithidia fasciculata; type: functional, organism-based
# [2] = Oxidation of dithiothreitol assessed as oxygen consumption at 50 uM; type: physicochemical
Structure (SMILES),Activity [1] [µM/min],pIC50 (Leptomonas seymouri),pIC50 (Crithidia fasciculata),Activity [2] [µM/min]
CC1=CC2=C(C(=O)C1=O)C(C)CCC2C(C)C (centres undefined) [MANSONONE A],26,5.07,4.82,37
CC1(C)CCC2=C(O1)c1cc(Cl)ccc1C(=O)C2=O,879,6.40,6.10,470
CC1=Cc2c(C(C)C)ccc(C)c2C(=O)C1=O,434,5.40,5.22,
CC1=C2OCC(C)c3ccc(C)c(c32)C(=O)C1=O (centres undefined) [MANSONONE E],276,6.40,6.22,66
CCC1(C)CCC2=C(O1)c1ccccc1C(=O)C2=O (centres undefined),733,6.52,6.10,208
CC1(c2ccccc2)CCC2=C(O1)c1ccccc1C(=O)C2=O (centres undefined),990,6.15,6.15,315
CC1(C)CCC2=C(O1)C(=O)c1ccccc1C2=O [ALPHA-LAPACHONE],7,5.39,4.57,1
CC1(C)CCC2=C(O1)c1ccccc1C(=O)C2=O [LAPACHONE],808,6.40,,238
CC1=COC2=C(C)C(=O)C(=O)c3c(C)ccc1c32 [MANSONONE F],58,7.00,6.52,14
